Source: patent US20050090529A1, “3,5 Disubstituted indazole compounds with nitrogen-bearing 5-membered heterocycles, pharmaceutical compositions, and methods for mediating or inhibiting cell proliferation” (PFIZER INC, priority 2003, published 2005)

System: Cyclin-dependent kinase
Test: Cyclin-dependent kinase inhibition, % inhibition at 10 nM (library Examples 99-270)
Assay type: biochemical
Conditions: 10 nM compound
Protocol: Cyclin-dependent kinase activity was measured by quantifying the enzyme-catalyzed, time-dependent incorporation of radioactive phosphate from [^32P]ATP or [^33P]ATP into a protein substrate. Unless noted otherwise, assays were performed in 96-well plates in a total volume of 50 μL, in the presence of 10 mM HEPES (N-[2-hydroxyethyl]piperazine-N′-[2-ethanesulfonic acid]) (pH 7.4), 10 mM MgCl2, 25 μM adenosine triphosphate (ATP), 1 mg/mL ovalbumin, 5 μg/mL leupeptin, 1 mM dithiothreitol, 10 mM beta-glycerophosphate, 0.1 mM sodium vanadate, 1 mM sodium fluoride, 2.5 mM ethylene glycol-bis(β-aminoethyl ethKer)-N,N,N′N′-tetraacetic acid (EGTA), 2% (v/v) dimethylsulfoxide, and 0.03-0.4 μCi [^32/33P]ATP per reaction. Reactions were initiated with enzyme, incubated at 30° C., and terminated after 20 minutes by the addition of ethylenediaminetetraacetic acid (EDTA) to 250 mM. The phosphorylated substrate was then captured on a nitrocellulose or phosphocellulose membrane using a 96-well filtration manifold, and unincorporated radioactivity was removed by repeated washing with 0.85% phosphoric acid. Radioactivity was quantified by exposing the dried membranes to a phosphorimager.
Results of assays performed on compounds, which include the specific examples described above are provided in Examples 99-274 above, and in Table 1 below. Unless indicated otherwise in a particular entry, the units and assays used are as indicated in the applicable column of the table.

Row | % Inhib @ 10 nM [%] | SMILES
1 | 26 | CCNCc1cncc(-c2ccc3[nH]nc(-c4ncc(C(=O)N5CCN(CC(=O)N6CCCCC6)CC5)[nH]4)c3c2)c1C [Example 246, ethyl({4-methyl-5-[3-(5-{[4-(2-oxo-2-piperidin-1-ylethyl)piperazin-1-yl]carbonyl}-1H-imidazol-2-yl)-1H-indazol-5-yl]pyridin-3-yl}methyl)amine]
2 | 65 | CCNCc1cncc(-c2ccc3[nH]nc(-c4ncc(C(=O)N5CCC(C(=O)c6ccc(F)cc6)CC5)[nH]4)c3c2)c1C [Example 142, (1-{[2-(5-{5-[(ethylamino)methyl]-4-methylpyridin-3-yl}-1H-indazol-3-yl)-1H-imidazol-5-yl]carbonyl}piperidin-4-yl)(4-fluorophenyl)methanone]
3 | 84 | CCNCc1cncc(-c2ccc3[nH]nc(-c4ncc(C(=O)N5Cc6ccccc6C5)[nH]4)c3c2)c1C [Example 227, [(5-{3-[5-(1,3-dihydro-2H-isoindol-2-ylcarbonyl)-1H-imidazol-2-yl]-1H-indazol-5-yl}-4-methylpyridin-3-yl)methyl]ethylamine]
4 | 64 | CCNCc1cncc(-c2ccc3[nH]nc(-c4ncc(C(=O)NCCc5cccc(OC)c5)[nH]4)c3c2)c1C [Example 114, 2-(5-{5-[(ethylamino)methyl]-4-methylpyridin-3-yl}-1H-indazol-3-yl)-N-[2-(3-methoxyphenyl)ethyl]-1H-imidazole-5-carboxamide]
5 | 42 | CCNCc1cncc(-c2ccc3[nH]nc(-c4ncc(C(=O)N5CCCC(c6nc7ccccc7[nH]6)C5)[nH]4)c3c2)c1C (centres unmarked) [Example 183, ({5-[3-(5-{[3-(1H-benzimidazol-2-yl)piperidin-1-yl]carbonyl}-1H-imidazol-2-yl)-1H-indazol-5-yl]-4-methylpyridin-3-yl}methyl)ethylamine]
6 | 61 | CCNCc1cncc(-c2ccc3[nH]nc(-c4ncc(C(=O)N5CCC(C#N)(c6ccccc6)CC5)[nH]4)c3c2)c1C [Example 113, 1-{[2-(5-{5-[(ethylamino)methyl]-4-methylpyridin-3-yl}-1H-indazol-3-yl)-1H-imidazol-5-yl]carbonyl}-4-phenylpiperidine-4-carbonitrile]
7 | 76 | CCNCc1cncc(-c2ccc3[nH]nc(-c4ncc(C(=O)N(C)C)[nH]4)c3c2)c1C [Example 190, 2-(5-{5-[(ethylamino)methyl}-4-methylpyridin-3-yl}-1H-indazol-3-yl)-N,N-dimethyl-1H-imidazole-5-carboxamide]
8 | 59 | CCNCc1cncc(-c2ccc3[nH]nc(-c4ncc(C(=O)N(C)CCS(C)(=O)=O)[nH]4)c3c2)c1C [Example 241]
9 | 61 | CCNCc1cncc(-c2ccc3[nH]nc(-c4ncc(C(=O)N5C[C@@H]6C[C@H]5CO6)[nH]4)c3c2)c1C [Example 186, ethyl{[4-methyl-5-(3-{5-[(1S,4S)-2-oxa-5-azabicyclo[2.2.1]hept-5-ylcarbonyl]-1H-imidazol-2-yl)-1H-indazol-5-yl)pyridin-3-yl]methyl}amine]
10 | 70 | CCNCc1cncc(-c2ccc3[nH]nc(-c4ncc(C(=O)N(C)Cc5cnn(-c6ccccc6)c5)[nH]4)c3c2)c1C [Example 225, 2-(5-{5-[(ethylamino)methyl]-4-methylpyridin-3-yl}-1H-indazol-3-yl)-N-methyl-N-[(1-phenyl-1H-pyrazol-4-yl)methyl]-1H-imidazole-5-carboxamide]
11 | 36 | CCNCc1cncc(-c2ccc3[nH]nc(-c4ncc(C(=O)NC(CO)CCSC)[nH]4)c3c2)c1C (centres unmarked) [Example 172]
12 | 37 | CCNCc1cncc(-c2ccc3[nH]nc(-c4ncc(C(=O)N(C)CCc5ccc(OC)c(OC)c5)[nH]4)c3c2)c1C [Example 165, N-[2-(3,4-dimethoxyphenyl)ethyl]-2-(5-{5-[(ethylamino)methyl]-4-methylpyridin-3-yl}-1H-indazol-3-yl)-N-methyl-1H-imidazole-5-carboxamide]
13 | 29 | CCNCc1cncc(-c2ccc3[nH]nc(-c4ncc(C(=O)NCCc5nnc(-c6cnccn6)o5)[nH]4)c3c2)c1C [Example 264]
14 | 78 | CCNCc1cncc(-c2ccc3[nH]nc(-c4ncc(C(=O)NCc5ccccc5OC)[nH]4)c3c2)c1C [Example 106]
15 | 46 | CCNCc1cncc(-c2ccc3[nH]nc(-c4ncc(C(=O)N5C[C@H](C(=O)OC)[C@@H](c6cccnc6)C5)[nH]4)c3c2)c1C [Example 220, methyl(3R,4S)-1-{[2-(5-{5-[(ethylamino)methyl]-4-methylpyridin-3-yl}-1H-indazol-3-yl)-1H-imidazol-5-yl]carbonyl}-4-pyridin-3-ylpyrrolidine-3-carboxylate]
16 | 49 | CCNCc1cncc(-c2ccc3[nH]nc(-c4ncc(C(=O)N(CCC#N)CC5CCCO5)[nH]4)c3c2)c1C (centres unmarked) [Example 258]

Row | % Inhib @ 10 nM [%] | SMILES
17 | 63 | CCNCc1cncc(-c2ccc3[nH]nc(-c4ncc(C(=O)NCc5ccc(C(C)(C)O)cc5)[nH]4)c3c2)c1C [Example 235, 2-(5-{5-[(ethylamino)methyl]-4-methylpyridin-3-yl}-1H-indazol-3-yl)-N-[4-(1-hydroxy-1-methylethyl)benzyl]-1H-imidazole-5-carboxamide]
18 | 37 | CCNCc1cncc(-c2ccc3[nH]nc(-c4ncc(C(=O)N5CCC(c6nnc(CN(C)C)o6)CC5)[nH]4)c3c2)c1C [Example 257]
19 | 75 | CCNCc1cncc(-c2ccc3[nH]nc(-c4ncc(C(=O)NCc5ccc6[nH]c(C)cc6c5)[nH]4)c3c2)c1C [Example 238, 2-(5-{5-[(ethylamino)methy]-4-methylpyridin-3-yl}-1H-indazol-3-yl)-N-[(2-methyl-1H-indol-5-yl)methyl]-1H-imidazole-5-carboxamide]
20 | 21 | CCNCc1cncc(-c2ccc3[nH]nc(-c4ncc(C(=O)NCC5CCNCC5)[nH]4)c3c2)c1C [Example 184]
21 | 89 | CCNCc1cncc(-c2ccc3[nH]nc(-c4ncc(C(=O)NC5C6CC7CC(C6)CC5C7)[nH]4)c3c2)c1C (centres unmarked) [Example 126, N-2-adamantyl-2-(5-{5-[(ethylamino)methyl]-4-methylpyridin-3-yl}-1H-indazol-3-yl)-1H-imidazole-5-carboxamide]
22 | 31 | CCNCc1cncc(-c2ccc3[nH]nc(-c4ncc(C(=O)N[C@@H]5CCCC[C@H]5OCc5ccccc5)[nH]4)c3c2)c1C [Example 203, N-[(1R,2R)-2-(benzyloxy)cyclohexyl]-2-(5-{5-[(ethylamino)methyl]-4-methylpyridin-3-yl)-1H-indazol-3-yl)-1H-imidazole-5-carboxamide]
23 | 52 | CCNCc1cncc(-c2ccc3[nH]nc(-c4ncc(C(=O)N[C@@H](CO)Cc5c[nH]c6ccccc56)[nH]4)c3c2)c1C [Example 185, 2-(5-{5-[(ethylamino)methyl]-4-methylpyridin-3-yl}-1H-indazol-3-yl)-N-[(1R)-2-hydroxy-1-(1H-indol-3-ylmethyl)ethyl]-1H-imidazole-5-carboxamide]
24 | 55 | CCNCc1cncc(-c2ccc3[nH]nc(-c4ncc(C(=O)N5CCC(NC(C)=O)C5)[nH]4)c3c2)c1C (centres unmarked) [Example 129]
25 | 27 | CCNCc1cncc(-c2ccc3[nH]nc(-c4ncc(C(=O)NCCc5nnc(CC(C)C)o5)[nH]4)c3c2)c1C [Example 270, 2-(5-{5-[(ethylamino)methyl]-4-methylpyridin-3-yl}-1H-indazol-3-yl)-N-[2-(5-isobutyl-1,3,4-oxadiazol-2-yl)ethyl]-1H-imidazole-5-carboxamide]
26 | 79 | CCNCc1cncc(-c2ccc3[nH]nc(-c4ncc(C(=O)N5CCc6ncsc6C5)[nH]4)c3c2)c1C [Example 217, [(5-{3-[5-(6,7-dihydro[1,3]thiazolo[5,4-c]pyridin-5(4H)-ylcarbonyl)-1H-imidazol-2-yl]-1H-indazol-5-yl}-4-methylpyridin-3-yl)methyl]ethylamine]
27 | 18 | CCNCc1cncc(-c2ccc3[nH]nc(-c4ncc(C(=O)NCCC5CCC(=O)N5Cc5ccccc5)[nH]4)c3c2)c1C (centres unmarked) [Example 253, N-[2-(1-benzyl-5-oxopyrrolidin-2-yl)ethyl]-2-(5-{5-[(ethylamina)methyl]-4-methylpyridin-3-yl}-1H-indazol-3-yl)-1H-imidazole-5-carboxamide]
28 | 55 | CCNCc1cncc(-c2ccc3[nH]nc(-c4ncc(C(=O)NC(CO)c5cccnc5)[nH]4)c3c2)c1C (centres unmarked) [Example 244]
29 | 72 | CCNCc1cncc(-c2ccc3[nH]nc(-c4ncc(C(=O)NCc5ccc(-c6csnn6)cc5)[nH]4)c3c2)c1C [Example 224]
30 | 40 | CCNCc1cncc(-c2ccc3[nH]nc(-c4ncc(C(=O)N5CCN(CC(=O)N(C)C)CC5)[nH]4)c3c2)c1C [Example 182]
31 | 41 | CCNCc1cncc(-c2ccc3[nH]nc(-c4ncc(C(=O)NCCCSC)[nH]4)c3c2)c1C [Example 174, 2-(5-{5-[(ethylamino)methyl]-4-methylpyridin-3-yl}-1H-indazol-3-yl)-N-[3-(methylthio)propyl]1H-imidazole-5-carboxamide]

Row | SMILES | % Inhib @ 10 nM [%]
32 | CCNCc1cncc(-c2ccc3[nH]nc(-c4ncc(C(=O)N(CCC#N)Cc5cccnc5)[nH]4)c3c2)c1C [Example 206, N-(2-cyanoethyl)-2-(5-{5-N(ethylamino)methyl8-4-methylpyridin-3-yl}-1H-indazol-3-yl)-N-(pyridin-3-ylmethyl)-1H-imidazole-5-carboxamide] | 71
